Laboratory results as given in patent publication US12329755B2, “Bromodomain inhibitors to target therapy-resistant cancer” (University of Tennessee Research Foundation, priority 2019, dated 2025).

Experiments:
BTICs = conditions: cited from earlier work
X16 BTICs [1] = assay: cell proliferation of X16 BTICs; assay type: cell-based, human; conditions: PFI-3 alone
Protocol: FIG. 1A is a pair of graphs showing the effect of temozolomide (TMZ) on the proliferation of brain-tumor initiating cells (BTICs) obtained from two independent glioblastoma tumors, GBM6 (left) and X16 (right). Relative proliferation is shown for cells treated with 300 micromolar (μM) TMZ or 600 μM TMZ, as well as for untreated cells. *p≤0.05.
BRG1 loss sensitizes BTICs to TMZ in vitro and in vivo: Although the alkylating agent TMZ is front-line chemotherapy in the treatment of GBM, a significant clinical problem is intrinsic or adaptive resistance to TMZ.^63 To evaluate TMZ sensitivity, GBM6 or X16 BTICs were treated with 300 μM or 500 μM TMZ, and cell proliferation was determined. […] Since BRG1 has been implicated in DNA double-strand break repair,^65-67 it was hypothesized that BRG1 loss in BTICs would sensitize BTICs to TMZ. […] To determine whether BRG1-KD sensitized BTICs to TMZ in vivo, animal studies were conducted with control (scrambled shRNA) and BRG1-KD X16 BTICs injected into the flanks of NSG mice. After tumor initiation was confirmed by live animal imaging, mice were treated with TMZ. […] Thus, despite X16 BRG1-KD BTICs producing larger tumors, the tumors were sensitized to TMZ therapy. […]

embryonic stem cell = conditions: cited from earlier work
[2] = system: LN229 TMZ-resistant glioma cell line; assay: IncuCyte live cell imaging proliferation assay; assay type: cell-based
Protocol: (§1) FIG. 2A is a graph showing relative growth of temozolomide (TMZ)-resistant glioma cells (LN229 cells) alone (control); after treatment with 100 micromolar (μM) TMZ; after treatment with a Brahma-related gene-1 bromodomain inhibitor (BRI), PFI-3 (1 μM); or after treatment with both TMZ and PFI-3 (combined).
as §1, with “2B” for “2A”, “IV-073” for “PFI-3”
as §1, with “2C” for “2A”, “LN229 Temozolomide” for “temozolomide”, “cells” for “cells (LN229 cells)”, “IV-077” for “PFI-3”
as §1, with “2D” for “2A”, “LN229 Temozolomide” for “temozolomide”, “cells” for “cells (LN229 cells)”, “IV-085” for “PFI-3”
To determine whether PFI-3 (also called YH-IV-081) and its analogs (referred to herein as “PAs”) enhanced TMZ sensitivity IncuCyte live cell imaging proliferation assays (high throughput system) were performed with the LN229 TMZ-resistant glioma cell line.

bromodomain of BRG1 = biological target: T1, bromodomain of BRG1 (Homo sapiens, UniProt P51532); assay: thermal shift assay of the BRG1 bromodomain in MT330 GBM cells; assay type: binding; conditions: 44.5° C. to 55.6° C.; PFI-3 30 μM, IV-073 20 μM, two hours; compared to DMSO
T1 construct: The assay involved the use of the bromodomain of BRG1 in MT330 GBM cells; expressed in transfected cells; host or cells: MT330 GBM cells
T1 sequence (P51532 1453-1564 limits assumed): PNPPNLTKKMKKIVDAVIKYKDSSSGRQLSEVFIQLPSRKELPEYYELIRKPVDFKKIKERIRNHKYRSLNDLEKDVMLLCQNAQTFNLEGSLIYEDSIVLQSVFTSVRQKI
Protocol: FIG. 3 is a series of immunoblot images showing the effects of Brahma-related gene-1 bromodomain inhibitors (BRIs) on the stability of the bromodomain of Brahma-related gene-1 in a thermal assay shift of the bromodomain in glioblastoma cells over a temperature range from 44.5 degrees Celsius (° C.) to 55.6° C. Cells were treated with (middle) PFI-3 (30 micromolar (μM)) for two hours or (right), a PFI-3 analog of the presently disclosed subject matter (IV-073) (20 μM) for two hours. For comparison, control cells treated with dimethyl sulfoxide (DMSO) are shown at […].
To further study the activity of the presently disclosed PFI-3 analogs, a thermal shift assay was employed. The assay involved the use of the bromodomain of BRG1 in MT330 GBM cells at temperatures ranging from 44.5° C. to 55.6° C.

X16 BTICs [3] = conditions: cited from earlier work
GFAP = conditions: X16 BTICs; cited from earlier work

Which “effect on BTIC proliferation” value (BTICs; PFI-3 alone) does the source give for `O=C(/C=C/N1C[C@H]2C[C@@H]1CN2c1ccccn1)c1ccccc1O` [PFI-3, (E)-1-(2-hydroxyphenyl)-3-((1R,4R)-5-(pyridin-2-yl)-2,5-diazabicyclo[2.2.1]heptan-2-yl)prop-2-en-1-one] here?
The value was “little effect on BTIC proliferation”.

And the “stemness of BTICs” value (BTICs)?
Its value is “inhibits the stemness of BTICs”.

And the “sensitization of BTICs to DNA alkylating agents” value (BTICs; in vitro)?
The value was “sensitizes BTICs to DNA alkylating agents”.

And the “effect on BTIC proliferation” value (X16 BTICs [1])?
The value was “only a slight growth inhibitory effect”.

What about the “embryonic stem cell phenotype” value (embryonic stem cell) of the same compound?
Its value is “inhibits the embryonic stem cell phenotype”.

What about the “sensitization to TMZ” value ([2]; BRI 1 μM combined with 100 μM TMZ) of the same compound?
The value was “potently sensitized”.

And the “effect on cell growth” value ([2]; BRI alone (1 μM))?
Its value is “relatively minor effects on cell growth”.

And the “stabilization of the BRG1 bromodomain” value (bromodomain of BRG1)?
The value was “stabilizes the BRG1 bromodomain”.

What about the “sensitization to Carmustine” value (X16 BTICs [3]; X16 BTICs, PFI-3 treatment) of the same compound?
Its value is “sensitized”.

What about the “effect on X16 BTIC proliferation” value (X16 BTICs [3]; combination of TMZ and PFI-3, versus either agent alone) of the same compound?
Its value is “markedly greater effect on X16 BTIC proliferation than either agent alone”.

And the GFAP protein expression (GFAP)?
Its GFAP protein expression is “upregulated GFAP protein expression”.
